Results on six compounds are retold here after paper doi:10.1101/525105v1 (biorxiv, 2019).

SMILES strings stand for the structures.

Series [1] is described as follows: in vitro. Particulars: human, tzm-bl cells.
Series [2] relates to HIV-1IIIB. Description: microbe, parasite or virus in culture. Also on record: species or system LC5-RIC. Conditions: Human immunodeficiency virus 1, 48 h, read-out: IC50 HIV-1IIIB.
A short description of series [3]: in vitro. Particulars: human, lc5-ric cells.
The target of series [4] is HIV-1 integrase (XpressBio kit) (HIV-1 M:B_HXB2R, UniProt P04585). Put plainly: HIV-1 integrase assay kit. The format is biochemical.
Series [5] addresses T1, E. coli RNase H (Escherichia coli, UniProt P0A7Y4).
T1 sequence (P0A7Y4 1-155): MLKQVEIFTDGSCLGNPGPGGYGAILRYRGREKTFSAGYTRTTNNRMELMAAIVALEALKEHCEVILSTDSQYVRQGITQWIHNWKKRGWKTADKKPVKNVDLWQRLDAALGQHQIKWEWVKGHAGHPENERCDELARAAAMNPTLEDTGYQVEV
Description: RNase H assay. The format is biochemical.

Series [6] deals with HIV-1 RT (Roche colorimetric reverse transcriptase assay kit) (HIV-1 M:B_HXB2R, UniProt P04585). Put plainly: colorimetric RT polymerase assay. The series is classed as biochemical.
Series [7] concerns the target AMV RNase H. Put plainly: RNase H assay. The format is biochemical, Avian myeloblastosis virus. Particulars: conditions not printed for this enzyme.

Broadly, the CC50 is the concentration at which the toxic effect on the cells reaches its halfway point. The low end stands for harm at low concentration, the high end for better tolerance by the cells. What is called IC50 is the concentration needed to halve the response being measured. Consider `CC(C)Oc1ccc2cccnc2c1-c1cccc2ccccc12` [B#24, 7-(Isopropyloxy)-8-(naphth-1-yl)quinoline], for which the midpoint of cytotoxicity in series [1], the CC50, lay at 68.5 ± 17.1 µM. In addition, the IC50 was 7.6 ± 0.2 µM in series [2]; more than 100 µM in series [4]; 44.3 ± 6.4 µM in series [5]; more than 100 µM in series [6]; more than 100 µM in series [7]. The compound also had a CC50 at 48 h in series [3] of 86.5 ± 3.7 µM.

For `CC(C)Oc1ccc2cccnc2c1-c1cccc2cccnc12` [B#57, 7-(Isopropyloxy)-8,8′-biquinolyl], the CC50 in series [1] is more than 200 µM. The IC50 was more than 200 µM in series [2]; more than 100 µM in series [4]; more than 100 µM in series [5]; more than 100 µM in series [6]; more than 100 µM in series [7]. The compound also yielded a CC50 at 48 h in series [3] of more than 200 µM.

In turn, `CCN(CC)C(=O)Oc1ccc2cccnc2c1-c1cccc2cccnc12` [B#58, 7-[(Diethylamino)carbonyloxy]-8,8'-biquinolyl] registered a CC50 in series [1] of more than 200 µM. Besides, the IC50 in series [2] is more than 200 µM.

In the case of `CC(C)Oc1ccc2ccccc2c1-c1cccc2cccnc12` [B#59, 2-(Isopropyloxy)-1-(quinol-8-yl)naphthalene], the CC50 in series [1] was more than 100 µM. Moreover, in series [2], the IC50 amounted to 39.5 ± 1.7 µM. The compound also registered a CC50 at 48 h in series [3] of 144 ± 7.7 µM.

Turning to `CCN(CC)OC(=O)c1ccc2ccccc2c1-c1cccc2cccnc12` [B#60, 2-[(Diethylamino)oxycarbonyl]-1-(quinol-8-yl)naphthalene], the CC50 in series [1] came to 69.3 ± 4.9 µM. The 50% inhibitory concentration (IC50) in series [2] was 50.1 ± 3.7 µM. Besides, the CC50 at 48 h in series [3] is 71.4 ± 2.8 µM.

Turning to `Cc1cc(/C=C/C#N)cc(C)c1Nc1ccnc(Nc2ccc(C#N)cc2)n1` [rilpivirine, reference compound], the IC50 in series [5] is more than 10 µM; in series [6], approximately 0.001 µM; in series [7] it was more than 10 µM.
